In patent US5686486A, “4-hydroxy-benzopyran-2-ones and 4-hydroxy-cycloalkyl[b]pyran-2-ones useful to treat retroviral infections” (priority 1995, dated 1997):
Where two headings read alike, the source gives them in different places.

Biological target: HIV-1 protease (Human immunodeficiency virus type 1 group M subtype B, UniProt P04585)
Experiment: biochemical
Conditions: for inhibition at 0.123 µM: read-out: HIV-1 Protease % Inhib, dose 0.123 uM
Method in brief: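 Biotinylated, FITC-labeled peptide substrate (20 μl of 0.2 μM) incubated with HIV-1 protease (10 μl of 0.1 μM) and compound in 0.1 M sodium acetate pH 5.5, 1.0 M NaCl, 0.05% NP-40, 1 h, room temperature, dark. Streptavidin beads then capture uncleaved substrate; filtered labeled product read by fluorescence, giving percent inhibition.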

[1] = dose 1.100 uM, read-out: HIV-1 Protease % Inhib
[2] = dose 3.300 uM, read-out: HIV-1 Protease % Inhib
[3] = dose 10.000 uM, read-out: HIV-1 Protease % Inhib
[4] = dose 30.000 uM, read-out: HIV-1 Protease % Inhib
[5] = read-out: HIV-1 Protease % Inhib, dose 0.370 uM
[6] = read-out: HIV-1 Protease % Inhib, dose 1.100 uM
[7] = read-out: HIV-1 Protease % Inhib, dose 3.300 uM
[8] = read-out: HIV-1 Protease % Inhib, dose 10.000 uM
[9] = read-out: HIV-1 Protease % Inhib, dose 30.000 uM
[10] = read-out: HIV-1 Protease % Inhib

Row | SMILES | inhibition at 0.123 µM | inhibition at 0.37 µM [5] | inhibition at 1.1 µM [6] | inhibition at 3.3 µM [7] | inhibition at 10 µM [8] | inhibition at 30 µM [9] | also measured
1 | O=c1oc2c(c(O)c1C(c1cccc(NS(=O)(=O)c3c(Cl)cccc3Cl)c1)C1CC1)CCCCCC2 (centres unmarked) [Example 295, 2,6-Dichloro-N-[3-[cyclopropyl(5,6,7,8,9,10-hexahydro-4-hydroxy-2'-oxo-2H-cycloocta[b]pyran-3-yl)methyl]phenyl]-benzenesulfonamide] |  |  |  |  |  |  | inhibition at 1.1 µM [1]: 25.9%; inhibition at 3.3 µM [2]: 57%; inhibition at 10 µM [3]: 87.5%; inhibition at 30 µM [4]: 100%
2 | Cn1cnc(S(=O)(=O)Nc2cccc([C@@H](c3c(O)c4c(oc3=O)CCCCCC4)C3CC3)c2)c1 [Example 297, N-[3-[Cyclopropyl(5,6,7,8,9,10-hexahydro-4-hydroxy-2-oxo-2H-cycloocta-3-yl)methyl]phenyl]-1-methyl-(S)-1H-imidazole-4-sulfonamide] | 72% | 86% | 101% | 99.8% | 102% | 99.5% | 
3 | O=c1oc2c(c(O)c1C(c1cccc(NS(=O)(=O)c3ccc(I)cc3)c1)C1CC1)CCCCCC2 (centres unmarked) [Example 300, N-[3-[Cyclopropyl(5,6,7,8,9,10-hexahydro-4-hydroxy-2-oxo-2H-cycloocta[b]pyran-3-yl)methyl]phenyl]-4-iodo-benzenesulfonamide] | 68.8% | 92.2% | 101% | 102% | 108% | 108% | 
4 | O=c1oc2c(c(O)c1C(c1cccc(NS(=O)(=O)c3ccc(Cl)cc3Cl)c1)C1CC1)CCCCCC2 (centres unmarked) [Example 305, 2,4-Dichloro-N-[3-[cyclopropyl(5,6,7,8,9,10-hexahydro-4-hydroxy-2'-oxo-2H-cycloocta[b]pyran-3-yl)methyl]phenyl]-benzenesulfonamide] | 60.4% | 86.2% | 92.4% | 95.2% | 99.8% | 107% | 
5 | O=c1oc2c(c(O)c1C(c1cccc(NS(=O)(=O)c3c(Cl)cc(Cl)cc3Cl)c1)C1CC1)CCCCCC2 (centres unmarked) [Example 306, 2,4,6-Trichloro-N-[3-[cyclopropyl(5,6,7,8,9,10-hexahydro-4-hydroxy-2-oxo-2H-cycloocta[b]pyran-3-yl)methyl]phenyl]-benzenesulfonamide] |  |  |  |  |  |  | inhibition at 1.1 µM [1]: 24.4%; inhibition at 3.3 µM [2]: 53.2%; inhibition at 10 µM [3]: 74.5%; inhibition at 30 µM [4]: 86.2%
6 | CS(=O)(=O)Nc1cccc(C(c2c(O)c3c(oc2=O)CCCCCC3)C2CC2)c1 (centres unmarked) [Example 317, N-[3-[Cyclopropyl(5,6,7,8,9,10-hexahydro-4-hydroxy-2-oxo-2H-cycloocta[b]pyran-3-yl)methyl]phenyl]-methanesulfonamide] | 27.8% | 46.7% | 81.7% | 101% | 102% | 113% | 
7 | CC(=O)Nc1nc(C)c(S(=O)(=O)Nc2cccc(C(c3c(O)c4c(oc3=O)CCCCCC4)C3CC3)c2)s1 (centres unmarked) [Example 322, N-[5-[[[3-[Cyclopropyl(5,6,7,8,9,10-hexahydro-4-hydroxy-2-oxo-2H-cycloocta[b]pyran-3-yl)methyl]phenyl]amino]sulfonyl]-4-methyl-2-thiazolyl]-acetamide] |  |  |  |  |  |  | inhibition at 1.1 µM [1]: 22.3%; inhibition at 3.3 µM [2]: 61.1%; inhibition at 10 µM [3]: 91.8%; inhibition at 30 µM [4]: 106%
8 | O=c1oc2c(c(O)c1C(c1cccc(NS(=O)(=O)c3cccs3)c1)C1CC1)CCCCCC2 (centres unmarked) [Example 323, N-[3-[Cyclopropyl(5,6,7,8,9,10-hexahydro-4-hydroxy-2-oxo-2H-cycloocta[b]pyran-3-yl)methyl]phenyl]-2-thiophenesulfonamide] | 62.8% | 91.8% | 100% | 104% | 118% | 112% | 
9 | Cc1ccc(S(=O)(=O)Nc2cccc(C(c3c(O)c4c(oc3=O)CCCCCC4)C3CC3)c2)cc1 (centres unmarked) [Example 325, N-[3-[Cyclopropyl(5,6,7,8,9,10-hexahydro-4-hydroxy-2-oxo-2H-cycloocta[b]pyran-3-yl)methyl]phenyl]4-methyl-benzenesulfonamide] | 59.8% | 86.6% | 95.6% | 105% | 115% | 115% | 
10 | CCCCS(=O)(=O)Nc1cccc(C(c2c(O)c3c(oc2=O)CCCCCC3)C2CC2)c1 (centres unmarked) [Example 326, N-[3-[Cyclopropyl(5,6,7,8,9,10-hexahydro-4-hydroxy-2-oxo-2H-cycloocta[b]pyran-3-yl)methyl]phenyl]-1-butanesulfonamide] | 51.6% | 92.6% | 102% | 106% | 114% | 121% | 
11 | CC(C)S(=O)(=O)Nc1cccc(C(c2c(O)c3c(oc2=O)CCCCCC3)C2CC2)c1 (centres unmarked) [Example 328, N-[3-[Cyclopropyl(5,6,7,8,9,10-hexahydro-4-hydroxy-2-oxo-2H-cycloocta[b]pyran-3-yl)methyl]phenyl]-2-propanesulfonamide] | 11.9% | 46% | 86.6% | 106% | 114% | 111% | 
12 | Cc1cccc(C)c1S(=O)(=O)Nc1cccc(C(c2c(O)c3c(oc2=O)CCCCCC3)C2CC2)c1 (centres unmarked) [Example 329, N-[3-[Cyclopropyl(5,6,7,8,9,10-hexahydro-4-hydroxy-2-oxo-2H-cycloocta[b]pyran-3-yl)methyl]phenyl]-2,6-dimethyl-benzenesulfonamide] |  |  |  |  |  |  | inhibition at 0.37 µM [10]: 10.2%; inhibition at 1.1 µM [10]: 42.2%; inhibition at 3.3 µM [10]: 75.3%; inhibition at 10 µM [10]: 91.8%; inhibition at 30 µM [10]: 102%
13 | Cc1ccccc1S(=O)(=O)Nc1cccc(C(c2c(O)c3c(oc2=O)CCCCCC3)C2CC2)c1 (centres unmarked) [Example 330, N-[3-[Cyclopropyl(5,6,7,8,9,10-hexahydro-4-hydroxy-2-oxo-2H-cycloocta[b]pyran-3-yl)methyl]phenyl]-2-methyl-benzenesulfonamide] | 47.2% | 83.8% | 106% | 109% | 115% | 106% | 
14 | COc1cccc(OC)c1S(=O)(=O)Nc1cccc(C(c2c(O)c3c(oc2=O)CCCCCC3)C2CC2)c1 (centres unmarked) [Example 334, N-[3-[Cyclopropyl(5,6,7,8,9,10-hexahydro-4-hydroxy-2-oxo-2H-cycloocta[b]pyran-3-yl)methyl]phenyl]-2,6-dimethoxy-benzenesulfonamide] |  |  |  |  |  |  | inhibition at 0.37 µM (dose 0.370 uM, read-out: HIV-1 Protease % Inhib): 13.6%; inhibition at 1.1 µM [1]: 42.3%; inhibition at 3.3 µM [2]: 69%; inhibition at 10 µM [3]: 87.6%; inhibition at 30 µM [4]: 89.5%
15 | COc1ccc(S(=O)(=O)Nc2cccc(C(c3c(O)c4c(oc3=O)CCCCCC4)C3CC3)c2)cc1OC (centres unmarked) [Example 335, N-[3-[Cyclopropyl(5,6,7,8,9,10-hexahydro-4-hydroxy-2-oxo-2H-cycloocta[b]pyran-3-yl)methyl]phenyl]-3,4-dimethoxy-benzenesulfonamide] | 48.7% | 82.9% | 90.3% | 96.8% | 96.5% | 106% | 
16 | Cc1cccc(S(=O)(=O)Nc2cccc(C(c3c(O)c4c(oc3=O)CCCCCC4)C3CC3)c2)c1 (centres unmarked) [Example 336, N-[3-[Cyclopropyl(5,6,7,8,9,10-hexahydro-4-hydroxy-2-oxo-2H-cycloocta[b]pyran-3-yl)methyl]phenyl]-3-methyl-benzenesulfonamide] | 73.5% | 87.3% | 93% | 94.6% | 103% | 108% | 
17 | N#Cc1ccccc1S(=O)(=O)Nc1cccc(C(c2c(O)c3c(oc2=O)CCCCCC3)C2CC2)c1 (centres unmarked) [Example 339, 2-Cyano-N-[3-[cyclopropyl(5,6,7,8,9,10-hexahydro-4-hydroxy-2-oxo-2H-cycloocta[b]pyran-3-yl)methyl]phenyl]-benzenesulfonamide] | 53.5% | 81.3% | 94.9% | 99.2% | 105% | 99.8% | 
18 | CCCc1ccc(S(=O)(=O)Nc2cccc(C(c3c(O)c4c(oc3=O)CCCCCC4)C3CC3)c2)cc1 (centres unmarked) [Example 342, N-[3-[Cyclopropyl(5,6,7,8,9,10-hexahydro-4-hydroxy-2-oxo-2H-cycloocta[b]pyran-3-yl)methyl]phenyl]4-propyl-benzenesulfonamide] | 42% | 72.9% | 88.2% | 87.8% | 108% | 105% | 
19 | CCCCCCCCCCCCS(=O)(=O)Nc1cccc(C(c2c(O)c3c(oc2=O)CCCCCC3)C2CC2)c1 (centres unmarked) [Example 344, N-[3-[Cyclopropyl(5,6,7,8,9,10-hexahydro-4-hydroxy-2-oxo-2H-cycloocta[b]pyran-3-yl)methyl]phenyl]-1-dodecanesulfonamide] |  |  |  |  |  |  | inhibition at 1.1 µM [1]: 11.8%; inhibition at 3.3 µM [2]: 32.7%; inhibition at 10 µM [3]: 63.2%; inhibition at 30 µM [4]: 81.8%
